In patent US9278962B2 (Cytokinetics, Inc., priority 2011, dated 2016):
Each block holds one molecule with its values, some of them ahead of it.

System: rabbit skeletal myofibrils (approximately 90% fast fibers)
Test: Activation of fast skeletal myofibrils (PUMA coupled-enzyme ATPase assay, AC1.4)
Format: biochemical
Conditions: concentration at which the compound increased enzymatic activity by 40%, calcium at pCa25
Description: Rabbit skeletal myofibrils were prepared based upon the method of Herrmann et al. (Biochem. 32(28):7255-7263(1993). Myofibrils were prepared from rabbit psoas muscle purchased from Pel-Freez Biologicals (Arkansas) within 2 days of ordering, stored on ice. Minced muscle was homogenized in 10 volumes of ice-cold “standard” buffer (50 mM Tris, pH 7.4, 0.1 M potassium acetate, 5 mM KCl, 2 mM DTT, 0.2 mM PMSF, 10 μM leupeptin, 5 μM pepstatin, and 0.5 mM sodium azide) containing 5 mM EDTA and 0.5% Triton X-100 using an Omni-Macro homogenizer. Myofibrils were recovered by low speed centrifugation (3000 rpm for 10 minutes) and washed 2 times in the Triton X-100 containing buffer to ensure removal of cellular membrane. Following the Triton washes, myofibrils were washed 3 times in “standard” buffer containing 2 mM magnesium acetate. A final wash in assay buffer (12 mM PIPES, pH 6.8, 60 mM KCl, 1 mM DTT) was performed and brought to 10% sucrose for flash freezing in liquid nitrogen and storage at −80° C.
Fast fiber activators were identified by measuring the enzymatic activity of muscle myofibril preparations using the proprietary PUMA™ (see, e.g., U.S. Pat. Nos. 6,410,254, 6,743,599, 7,202,051, and 7,378,254) assay system. Myofibril preparations consisted of rabbit skeletal muscle (approximately 90% fast fibers) that had been mechanically homogenized and washed with a detergent (triton X-100) to remove cellular membranes. This preparation retained all of the sarcomeric components in a native conformation and the enzymatic activity was still regulated by calcium. Compounds were tested using a myofibril suspension and a level of calcium sufficient to increase enzymatic activity of the myofibrils to 25% of their maximal rate (termed pCa25). Enzymatic activity was tracked via a pyruvate kinase and lactate dehydrogenase-coupled enzyme system. This assay regenerates myosin-produced ADP into ATP by oxidizing NADH, producing an absorbance change at 340 nm. The buffering system was 12 mM Pipes, 2 mM MgCl2, 1 mM DTT at pH 6.8 (PM12 buffer).
Using procedures similar to those described herein, utilizing reagents and intermediates commercially available (e.g., Sigma-Aldrich) or readily synthesized by one of skill in the art, the compounds in Table 2, Table 3, Table 4 and Table 5 were synthesized, characterized and tested. AC1.4 values were determined according to the procedure described in Example 6, and the reported median AC1.4 values are as follows: A=<1 uM; B=1-10 uM; C=10-20 uM; D=>20 uM.

Structure (SMILES): Fc1cccnc1C1(CNc2cnn(-c3ccccc3)c2)CCC1 [N-((1-(3-fluoropyridin-2-yl)cyclobutyl)methyl)-1-phenyl-1H-pyrazol-4-amine]
Mean AC1.4 (Table 5): D (D=>20 uM)

Structure (SMILES): Cc1csc(CCNc2nc(Cc3ccc(F)cc3)ns2)n1 [{3-[(4-fluorophenyl)methyl](1,2,4-thiadiazol-5-yl)}[2-(4-methyl(1,3-thiazol-2-yl))ethyl]amine]
Mean AC1.4 (Table 2): D (D=>20 uM)

Structure (SMILES): Fc1cccnc1C1(CNc2nc(-c3ccccc3)co2)CCC1 [N-((1-(3-fluoropyridin-2-yl)cyclobutyl)methyl)-4-phenyloxazol-2-amine]
Mean AC1.4 (Table 5): D (D=>20 uM)

Structure (SMILES): NS(=O)(=O)c1ccc(CCNc2nc(Cc3ccc(F)cc3)ns2)cc1 [4-[2-({3-[(4-fluorophenyl)methyl]-1,2,4-thiadiazol-5-yl}amino)ethyl]benzenesulfonamide]
Mean AC1.4 (Table 2): D (D=>20 uM)

Structure (SMILES): CN(C)CCN(C)c1nsc(NCC(C)(C)c2ccc(F)cc2)n1 [[2-(dimethylamino)ethyl](5-{[2-(4-fluorophenyl)-2-methylpropyl]amino}(1,2,4-thiadiazol-3-yl))methylamine]
Mean AC1.4 (Table 2): D (D=>20 uM)

Structure (SMILES): CC(C)(CNc1nc(CN2CCNCC2)ns1)c1ccc(F)cc1 [[2-(4-fluorophenyl)-2-methylpropyl][3-(piperazinylmethyl)(1,2,4-thiadiazol-5-yl)]amine]
Mean AC1.4 (Table 2): C (C=10-20 uM)

Structure (SMILES): Cc1ccc(C#N)cc1-c1nnc(NC[C@]2(c3ncccc3F)C[C@H](F)C2)s1 [3-(5-((3-fluoro-1-(3-fluoropyridin-2-yl)cyclobutyl)methylamino)-1,3,4-thiadiazol-2-yl)-4-methylbenzonitrile]
Mean AC1.4 (Table 3): B (B=1-10 uM)

Structure (SMILES): CC(C)(O)c1ccc2nc(NCC(C)(C)c3ccc(F)cc3)sc2c1 [2-(2-(2-(4-fluorophenyl)-2-methylpropylamino)benzo[d]thiazol-6-yl)propan-2-ol]
Mean AC1.4 (Table 4): A (A=<1 uM)

Structure (SMILES): Cn1cc(-c2nnc(NC[C@]3(c4ncccc4F)C[C@H](F)C3)s2)cn1 [N-((3-fluoro-1-(3-fluoropyridin-2-yl)cyclobutyl)methyl)-5-(1-methyl-1H-pyrazol-4-yl)-1,3,4-thiadiazol-2-amine]
Mean AC1.4 (Table 3): D (D=>20 uM)

Structure (SMILES): NC(=O)c1cccc2nc(NC[C@]3(c4ncccc4F)C[C@H](F)C3)sc12 [2-((3-fluoro-1-(3-fluoropyridin-2-yl)cyclobutyl)methylamino)benzo[d] thiazole-7-carboxamide]
Mean AC1.4 (Table 4): D (D=>20 uM)

Structure (SMILES): Fc1ccc(Br)cc1-c1nnc(NCC2(c3ncccc3F)CCC2)s1 [5-(5-bromo-2-fluorophenyl)-N-((1-(3-fluoropyridin-2-yl)cyclobutyl)methyl)-1,3,4-thiadiazol-2-amine]
Mean AC1.4 (Table 3): A (A=<1 uM)

Structure (SMILES): CCOC(=O)c1ccc2nc(NCC(C)(C)c3ccc(F)cc3)sc2c1 [ethyl 2-(2-(4-fluorophenyl)-2-methylpropylamino)benzo[d] thiazole-6-carboxylate]
Mean AC1.4 (Table 4): B (B=1-10 uM)

Structure (SMILES): Clc1ccc2nc(NCC3(c4ccccn4)CCC3)sc2c1 [6-chloro-N-((1-(pyridin-2-yl)cyclobutyl)methyl)benzo[d] thiazol-2-amine]
Mean AC1.4 (Table 4): B (B=1-10 uM)

Structure (SMILES): CC(C)(CNc1nc(CCN2CC[C@@H](O)C2)ns1)c1ccc(F)cc1 [(3R)-1-[2-(5-{[2-(4-fluorophenyl)-2-methylpropyl]amino}(1,2,4-thiadiazol-3-yl))ethyl]pyrrolidin-3-ol]
Mean AC1.4 (Table 2): C (C=10-20 uM)

Structure (SMILES): Cn1nc(-c2cc(Br)ccc2F)nc1NC1(c2ncccc2F)CCC1 [5-(5-bromo-2-fluorophenyl)-N-(1-(3-fluoropyridin-2-yl)cyclobutyl)-2-methyl-2H-1,2,4-triazol-3-amine]
Mean AC1.4 (Table 5): D (D=>20 uM)

Structure (SMILES): N#Cc1ccc(Cl)c(-c2nnc(NC[C@]3(c4ncccc4F)C[C@H](F)C3)s2)c1 [4-chloro-3-(5-(((trans)-3-fluoro-1-(3-fIuoropyridin-2-yl)cyclobutyl)methylamino)-1,3,4-thiadiazol-2-yl)benzonitrile]
Mean AC1.4 (Table 3): A (A=<1 uM)

The remaining lines, values ahead:

Mean AC1.4 (Table 2): B (B=1-10 uM)
Structure (SMILES): CC(C)(CNc1nc(C(O)CO)ns1)c1ccc(F)cc1 (centres unmarked) [1-(5-{[2-(4-fluorophenyl)-2-methylpropyl]amino}-1,2,4-thiadiazol-3-yl)ethane-1,2-diol]

Mean AC1.4 (Table 4): C (C=10-20 uM)
Structure (SMILES): COc1ccc(C2(CNc3nc4ccc(C(N)=O)cc4s3)CCC2)nc1 [2-((1-(5-methoxypyridin-2-yl)cyclobutyl)methylamino)benzo[d] thiazole-6-carboxamide]

Mean AC1.4 (Table 2): D (D=>20 uM)
Structure (SMILES): CC(C)(CNc1nc(CNCCO)ns1)c1ccc(F)cc1 [2-{[(5-{[2-(4-fluorophenyl)-2-methylpropyl]amino}-1,2,4-thiadiazol-3-yl)methyl]amino}ethan-1-ol]

Mean AC1.4 (Table 2): C (C=10-20 uM)
Structure (SMILES): NC(=O)c1cccc(-c2nsc(NCCc3ccccc3)n2)c1 [3-{5-[(2-phenylethyl)amino]-1,2,4-thiadiazol-3-yl}benzamide]

Mean AC1.4 (Table 2): B (B=1-10 uM)
Structure (SMILES): CC(C)(CNc1nc(-c2cccc(C#N)c2)ns1)c1ccc(F)cc1 [3-(5-{[2-(4-fluorophenyl)-2-methylpropyl]amino}-1,2,4-thiadiazol-3-yl)benzenecarbonitrile]

Mean AC1.4 (Table 2): D (D=>20 uM)
Structure (SMILES): COC(=O)CNc1nc(-c2cccc(C#N)c2)ns1 [methyl 2-{[3-(3-cyanophenyl)-1,2,4-thiadiazol-5-yl]amino}acetate]

Mean AC1.4 (Table 2): D (D=>20 uM)
Structure (SMILES): COc1cccc(Cc2nsc(NCCc3nc(C)cs3)n2)c1 [{3-[(3-methoxyphenyl)methyl](1,2,4-thiadiazol-5-yl)}[2-(4-methyl(1,3-thiazol-2-yl))ethyl]amine]

Mean AC1.4 (Table 2): A (A=<1 uM)
Structure (SMILES): CC(C)(CNc1nc(-c2ccc(O)cc2)ns1)c1ccc(F)cc1 [4-(5-{[2-(4-fluorophenyl)-2-methylpropyl]amino}-1,2,4-thiadiazol-3-yl)phenol]

Mean AC1.4 (Table 2): B (B=1-10 uM)
Structure (SMILES): CC(C)(O)CCc1nsc(NCC(C)(C)c2ccc(F)cc2)n1 [4-(5-{[2-(4-fluorophenyl)-2-methylpropyl]amino}(1,2,4-thiadiazol-3-yl))-2-methylbutan-2-ol]

Mean AC1.4 (Table 4): D (D=>20 uM)
Structure (SMILES): N#Cc1ccc2nc(NCCc3ccc(F)cc3)sc2c1 [2-(4-fluorophenethylamino)benzo[d] thiazole-6-carbonitrile]

Mean AC1.4 (Table 2): D (D=>20 uM)
Structure (SMILES): NC(=O)c1cccc(-c2nc(NCCc3ccccc3)ns2)c1 [3-(3-(phenethylamino)-1,2,4-thiadiazol-5-yl)benzamide]

Mean AC1.4 (Table 2): B (B=1-10 uM)
Structure (SMILES): CC(C)(CNc1nc(-c2cn[nH]c2)ns1)c1ccc(F)cc1 [[2-(4-fluorophenyl)-2-methylpropyl](3-pyrazol-4-yl(1,2,4-thiadiazol-5-yl))amine]

Mean AC1.4 (Table 2): B (B=1-10 uM)
Structure (SMILES): CC(C)(CNc1nc(CCCNC(=O)CO)ns1)c1ccc(F)cc1 [N-[3-(5-{[2-(4-fluorophenyl)-2-methylpropyl]amino}(1,2,4-thiadiazol-3-yl))propyl]-2-hydroxyacetamide]

Mean AC1.4 (Table 4): C (C=10-20 uM)
Structure (SMILES): N#Cc1ccc2sc(NC[C@]3(c4ncccc4F)C[C@H](F)C3)nc2c1 [2-((3-fluoro-1-(3-fluoropyridin-2-yl)cyclobutyl)methylamino)benzo[d] thiazole-5-carbonitrile]

Mean AC1.4 (Table 2): A (A=<1 uM)
Structure (SMILES): C[C@H](CNc1nc(-c2cccc(C(N)=O)c2)ns1)c1ccc(F)cc1 [3-(5-{[(2S)-2-(4-fluorophenyl)propyl]amino}-1,2,4-thiadiazol-3-yl)benzamide]

Mean AC1.4 (Table 2): B (B=1-10 uM)
Structure (SMILES): Oc1cccc(Cc2nsc(NCCc3ccc(Cl)cc3)n2)c1 [3-[(5-{[2-(4-chlorophenyl)ethyl]amino}-1,2,4-thiadiazol-3-yl)methyl]phenol]
